Measured values taken from the supplement of paper PMC4862054.

Tests used:
Details in all cases: incubation time: 72 h
BT-474 [1] = test: normalised response (% of control), CellTox Green; higher = less cell death (100 = DMSO, 0 = benzethonium chloride kill control)
Method in brief: (§1)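 Two readouts were taken after 72 h: CellTox Green fluorescence (485/520 nm) first, then CellTiter-Glo luminescence after 10 min at room temperature. Breast cancer cell lines had been seeded as 20 µl suspension into 384-well plates holding compound at 5 concentrations in 10-fold steps across a compound-specific 10,000-fold range. Each value is a normalised signal at a single concentration, with plates scaled to 0.1 % DMSO (100) and a positive kill control (0).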

BT-549 [2] = test: as above
Method in brief: as §1

CAL-120 [3] = test: as above
Method in brief: as §1

CAL-148 [4] = test: as above
Method in brief: as §1

CAL-51 [5] = test: as above
Method in brief: as §1

CAL-85-1 [6] = test: as above
Method in brief: as §1

DU-4475 [7] = test: as above
Method in brief: as §1

HCC1143 [8] = test: as above
Method in brief: as §1

HCC1599 [9] = test: as above
Method in brief: as §1

HCC1937 [10] = test: as above
Method in brief: as §1

HDQ-P1 [11] = test: as above
Method in brief: as §1

Hs578T [12] = test: as above
Method in brief: as §1

MCF-10A [13] = test: as above
Method in brief: as §1

MDA-MB-231 [14] = test: as above
Method in brief: as §1

MDA-MB-436 [15] = test: as above
Method in brief: as §1

MDA-MB-453 [16] = test: as above
Method in brief: as §1

MDA-MB-468 [17] = test: as above
Method in brief: as §1

MFM-223 [18] = test: as above
Method in brief: as §1

BT-474 [19] = test: normalised response (% of control), CellTiter-Glo; higher = more viable cells (100 = DMSO, 0 = benzethonium chloride kill control)
Procedure: (§2)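 DSRT, 72 h incubation, CellTox Green / CellTiter-Glo readout. Signal is normalised to DMSO and benzethonium chloride controls. Value is the normalised response at dose 3.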

BT-549 [20] = test: as above
Procedure: as §2

CAL-120 [21] = test: as above
Procedure: as §2

CAL-148 [22] = test: as above
Procedure: as §2

CAL-51 [23] = test: as above
Procedure: as §2

CAL-85-1 [24] = test: as above
Procedure: as §2

DU-4475 [25] = test: as above
Procedure: as §2

HCC1143 [26] = test: as above
Procedure: as §2

HCC1599 [27] = test: as above
Procedure: as §2

HCC1937 [28] = test: as above
Procedure: as §2

HDQ-P1 [29] = test: as above
Procedure: as §2

Hs578T [30] = test: as above
Procedure: as §2

MCF-10A [31] = test: as above
Procedure: as §2

MDA-MB-231 [32] = test: as above
Procedure: as §2

MDA-MB-436 [33] = test: as above
Procedure: as §2

MDA-MB-453 [34] = test: as above
Procedure: as §2

MDA-MB-468 [35] = test: as above
Procedure: as §2

MFM-223 [36] = test: as above
Procedure: as §2

SK-BR-3 = test: as above
Procedure: as §2

Structure (SMILES) | normalised response (BT-474 [1]) [%] | normalised response (BT-549 [2]) [%] | normalised response (CAL-120 [3]) [%] | normalised response (CAL-148 [4]) [%] | normalised response (CAL-51 [5]) [%] | normalised response (CAL-85-1 [6]) [%] | normalised response (DU-4475 [7]) [%] | normalised response (HCC1143 [8]) [%] | normalised response (HCC1599 [9]) [%] | normalised response (HCC1937 [10]) [%] | normalised response (HDQ-P1 [11]) [%] | normalised response (Hs578T [12]) [%] | normalised response (MCF-10A [13]) [%] | normalised response (MDA-MB-231 [14]) [%] | normalised response (MDA-MB-436 [15]) [%] | normalised response (MDA-MB-453 [16]) [%] | normalised response (MDA-MB-468 [17]) [%] | normalised response (MFM-223 [18]) [%] | normalised response (BT-474 [19]) [%] | normalised response (BT-549 [20]) [%] | normalised response (CAL-120 [21]) [%] | normalised response (CAL-148 [22]) [%] | normalised response (CAL-51 [23]) [%] | normalised response (CAL-85-1 [24]) [%] | normalised response (DU-4475 [25]) [%] | normalised response (HCC1143 [26]) [%] | normalised response (HCC1599 [27]) [%] | normalised response (HCC1937 [28]) [%] | normalised response (HDQ-P1 [29]) [%] | normalised response (Hs578T [30]) [%] | normalised response (MCF-10A [31]) [%] | normalised response (MDA-MB-231 [32]) [%] | normalised response (MDA-MB-436 [33]) [%] | normalised response (MDA-MB-453 [34]) [%] | normalised response (MDA-MB-468 [35]) [%] | normalised response (MFM-223 [36]) [%] | normalised response (SK-BR-3) [%]
Cn1cnc2c(F)c(Nc3ccc(Br)cc3Cl)c(C(=O)NOCCO)cc21 [Selumetinib] (100 nM) | 96.5 | 104 | 95.8 | 90.4 | 98.7 | 94.9 | 92.2 | 86.3 | 89.2 | 100 | 97.9 | 102 | 94.8 | 77.1 | 77.2 | 101 | 75.3 | 94.9 | 84.2 | 104 | 90 | 94 | 94.1 | 100 | 81 | 92 | 113 | 85 | 70.6 | 89.4 | 45.7 | 84.7 | 96.2 | 103 | 89.6 | 94.9 | 91
CC1(C)CCC(CN2CCN(c3ccc(C(=O)NS(=O)(=O)c4ccc(NCC5CCOCC5)c([N+](=O)[O-])c4)c(Oc4cnc5[nH]ccc5c4)c3)CC2)=C(c2ccc(Cl)cc2)C1 [ABT-199] (100 nM) | 101 | – | 101 | 84.2 | 101 | 94.6 | 99.3 | 91.6 | 99.2 | 89.3 | 93.6 | 104 | 81.7 | 105 | 83 | 101 | – | 79.9 | 96.7 | 100 | 101 | 98.9 | 92.4 | 101 | 102 | 102 | 94.2 | 98.2 | 104 | 107 | 98.2 | 99.3 | 96.7 | 90.7 | 93.6 | 99.2 | 101
CC(C)(C)c1cnc(CSc2cnc(NC(=O)C3CCNCC3)s2)o1 [SNS-032] (100 nM) | 86.4 | 88.6 | 90.5 | -22.6 | 39.7 | 35.7 | 95.2 | 85 | 88.5 | 53.3 | 57.6 | 60.3 | 84.7 | 4.71 | 59.7 | 94.9 | 94.5 | 91.5 | 68.2 | 20.3 | 70.9 | 42.8 | 31.9 | 28.2 | 86.9 | 36.6 | 90.2 | 60.8 | 44.2 | 55.6 | 79.4 | 29.7 | 27.9 | 46.2 | 12.6 | 76.9 | 33.1
Nc1nc2[nH]cnc2c(=S)[nH]1 [Thioguanine] (100 nM) | 102 | 103 | 100 | – | 108 | 111 | 101 | 59.1 | 97.1 | 96.7 | 104 | 90.5 | 75.6 | 105 | 89 | 99 | 66.4 | 98.7 | 83.4 | 95.9 | 108 | 102 | 109 | 91.9 | 95.7 | 101 | 96.5 | 96.3 | 90.8 | 101 | 97.4 | 93.5 | 97 | 112 | 98.8 | 96.8 | 98.9
COc1cc2c(cc1O)CC[C@@H]1[C@@H]2CC[C@]2(C)[C@@H](O)CC[C@@H]12 [2-methoxyestradiol] (100 nM) | 94 | 110 | 98 | 56.1 | 78.3 | 87.6 | 98.7 | – | 102 | 97.3 | 107 | 103 | 61.8 | 99.3 | 87.4 | 101 | 69.5 | 102 | 98.5 | 95.5 | 101 | 90.6 | 63.5 | 97.3 | 101 | 100 | 89.4 | 93.4 | 103 | 102 | 94.5 | 102 | 101 | 91.1 | 103 | 94.2 | 89
Cn1cc(C2=Nc3cc(NC(=O)C(N)C4CCCCC4)cc4c3C2=CNNC4=O)cn1 (stereo unspecified) (100 nM) | 97.7 | 87.2 | 92 | – | 96.1 | 73 | 96.7 | 101 | 89.5 | 76.5 | 107 | 98.8 | 62.9 | 96.3 | – | 85 | 106 | 98.5 | 94.4 | 93.5 | 89 | 82.7 | 96.7 | 87.1 | 95.1 | 90.9 | 63.3 | 95.1 | 95.2 | 90.7 | 81.7 | 93.5 | 91.6 | 74.1 | 88.8 | 77.8 | 74.1
